In US20110136897A1, “TOLL-LIKE RECEPTOR 9 AGONISTS FOR THE TREATMENT OF ANXIETY-RELATED DISORDERS AND INFLAMMATORY DISORDERS” (YISSUM RESEARCH DEVELOPMENT COMPANY OF THE HEBREW …, priority 2008, published 2011):
Entries after “also recorded” stand apart in the source; their conditions may differ. In the oligonucleotide strings, read from the 5' end, every base follows the letter of its sugar. An asterisk marks phosphorothioate; unmarked linkages are phosphodiester. Other units and linkages are bracketed, terminal groups are in braces. A string of capitals states the bases alone. d = 2'-deoxy (DNA)

Key:
[1] = system: RAW264.7 cells; assay: Nitric oxide (NO) production, Griess reaction; assay type: cell-based, mouse; conditions: added with 10 μM mEN101
Description: (§1) The mouse macrophage cell line RAW 264.7 (ATCC, Bethesda, Md.) was cultured in Dulbecco's modified Eagle's medium (DMEM) (Biological Industries) supplemented with 10% heat-inactivated fetal bovine serum (Biological Industries, Israel), 100 μg/ml streptomycin, 100 U/ml penicillin (Sigma) and 2 mM 1-glutamine (Biological Industries) at 37° C. in a humidified atmosphere with 5% CO2.
Determination of nitric oxide (NO) production: Nitrite concentration in the medium of cultured cells was measured as an indicator of NO production according to the Griess reaction. 1×10^5 mouse RAW264.7 cells were grown in 0.5 ml medium in 48-wells plate until 80% confluence was obtained. […] (1% sulfanilamide, 0.1% naphthylethylenediamine dihydrochloride, 5% H3PO4). Absorbance was read at 540 nm after 10 min using SPECTRAFluor Plus spectrophotometer (TECAN, UK).
To further characterize the TLR9 activating features of mEN101, mEN101 was applied to RAW264.7 cells (n=4 repeats) for 24 hours and the subsequent production of inflammatory markers was quantified. […] Addition of chloroquine (CQ), a weak base that perturbs endosomal pH and thus disturbs endosomal maturation, as well as the specific TLR9 inhibiting oligonucleotides ODN2088 and ODN TTAGGG (17), all blocked the 10 μM mEN101-driven increases in NO (p<0.015) (FIG. 2A). Thus, both gain and loss of function tests validated the nature of mEN101 as an endosomally active TLR9 activator, albeit a weak one.

[2] = system: hippocampus; assay: RT-PCR of anxiety-related hippocampal transcripts, 4 days following stress; assay type: in vivo, mouse
Description: (§2) Animals were randomly divided into 5 groups. The following daily treatments initiated immediately before stressor exposure and for a total of four consecutive days: saline, 50 μg/kg ODN1826, 50 μg/kg mEN101, 50 μg/kg μg mEN101 and 500 μg/kg μg ODN2088. Oligonucleotides were delivered in 300 μl 0.9% NaCl solution (Teva, Israel). A control group was exposed to fresh, unused litter. Animals were sacrificed and brains dissected on day 1 2 h after the stressor, on day 4 2 h after the last injection, or on day 7 2 h after the behavioral tests, as noted.
Real-time PCR (RT-PCR): Brains were dissected and tissues stored frozen at −70° C. until use. Hippocampal RNA was extracted using the RNeasy Tissue Mini Kit (Qiagen, Germany). Total RNA was reverse-transcribed (200 ng) using Impromp-II reverse transcriptase (Promega, Madison, Wis.) as instructed. RT-PCR was performed using Power SYBR®Green PCR Master Mix (Applied Biosystems, UK) in a 7900 HT Sequence Detection System (Applied Biosystems, Foster City, Calif.). Quantification was assessed at the logarithmic phase of the PCR reaction. The PCR annealing temperature was 60° C. for all primer pairs. GAPDH was used as a house-keeping gene.
The transcription factor early growth response gene 1 (egr-1) is a central mediator of inflammation and is broadly and constitutively expressed in the central nervous system (CNS). […]

[3] = system: HSP90β mRNA; assay: HSP90β mRNA RT-PCR in spleen and frontal lobe of stressed mice; assay type: in vivo, mouse; conditions: co-administration with mEN101
Description: Animals: The stress paradigm consisted of placing the test animals on well-soiled cat litter for 10 minutes (in use by the cat for 2 days, sifted for stools). Tissues were removed 4 days following exposure.
(§3) Real-time PCR (RT-PCR): RAW264.7 cells and spleen were used for RT-PCR. 1×10^6 RAW264.7 cells were grown in 2 ml medium in 6 wells plates until 80% confluence was obtained. Total RNA was extracted using the RNeasy kit (Qiagen, CA, USA). Spleen and brain tissues' RNA was extracted using the RNeasy Tissue Mini Kit (Qiagen, Germany). In all cases, total RNA was reverse-transcribed (200 ng) using Impromp-II reverse transcriptase (Promega, WI, USA) according to manufacturer's instructions. RT-PCR was performed using Power SYBR®Green PCR Master Mix (Applied Biosystems, UK) in a 7900 HT Sequence Detection System (Applied Biosystems, CA). Quantification was assessed at the logarithmic phase of the PCR reaction. The PCR annealing temperature was 60° C. for all primer pairs.

[4] = system: RAW264.7 cells; assay: HSP90β mRNA RT-PCR in RAW264.7 cells; assay type: cell-based, mouse; conditions: with mEN101, 24 hours
Description: as §1, with “Cell cultures: The” for “The”, “MD)” for “Bethesda, Md.)”, “Industries, Israel)” for “Industries)”, “streptomycin (Sigma),” for “streptomycin,”
as §3

[5] = system: FVB/N mice; assay: Predator (cat) odor stress paradigm, elevated plus maze (EPM) and acoustic startle response (ASR) one week post-exposure; assay type: in vivo, mouse
Description: Animals: FVB/N or adult TLR9 −/− mice and strain-matched wild type C57/B6J mice were housed four per cage, with constant temperature (21±1° C.), a 12 hour light/dark cycle, free access to food and water and habituation to the housing conditions by daily handling. Experiments were performed 1 week after arrival in the animal facility.
Behavioral paradigms: Mice were placed for 10 minutes on well-soiled cat litter (in use by the cat for 2 days, sifted for stools). One week after exposure, animals were tested according to Cohen et al. (2005) Biol Psychiatry 58, 640 in the elevated plus maze (EPM) and the acoustic startle response (ASR) paradigms. The EPM is a plus-shaped platform with two opposing open arms and two opposing closed arms (surrounded by 14-cm high opaque walls on three sides). Mice were placed on the central platform and were allowed to explore the maze for 5 min. […]
Startle response was measured using two ventilated startle chambers (SR-LAB System, San Diego Instruments, San Diego, Calif.). Each Plexiglas cylinder rests on a platform inside a sound-attenuated, ventilated chamber. Startle sessions started with a 5-minute acclimatization period to a background of 68 dB white noise, followed by 30 acoustic startle stimuli (110 dB white noise of 40 ms duration with 30 s or 45 s inter-trial interval). Startle amplitude was averaged over all 30 trials, and percent habituation was calculated as the percent difference between the response to the first block of stimuli and to the last one.
as §2
To challenge the hypothesis that TLR9 activation modulates psychological stress reactions, mice were exposed to the predator odor stress paradigm (Cohen, H., Zohar, J., Matar, M. A., Kaplan, Z. & Geva, A. B. (2005) Biol Psychiatry 58, 640-50) and treated them with TLR9 activating or blocking oligonucleotides and with a known stress-suppressing oligonucleotide, mEN101. One week post-exposure, treated mice were tested for avoidance behavior and hyper-arousal in the elevated plus maze (EPM) and acoustic startle response (ASR) tests, respectively (FIG. 1B). […] They also presented greater startle amplitude (F5,103=10.75, p<0.0001; p<0.0001) and decreased startle habituation ([…]; p<0.0001) than control mice (FIG. 1C). The traumatic experience conferred varied impacts in the exposed mice, ranging from drastically maladaptive behavior to generally unmodified response patterns.

[6] = system: RAW264.7 cells; assay: Nitric oxide (NO) production, Griess reaction; assay type: cell-based, mouse; conditions: with 1 μM mEN101
[7] = 500 μg/kg co-administered with 50 μg/kg mEN101

With “5′-TCCTGGCGGGGAAGT-3′ (dT*dC*dC*dT*dG*dG*dC*dG*dG*dG*dG*dA*dA*dG*dT) [ODN2088]” the “effect on 10 μM mEN101-driven increases in NO” value [1] was “blocked”, the “effect on mEN101-induced modulation of hippocampal genes” value ([2]; co-administration with mEN101) was “abolished the mEN101-induced modulation of these genes” and the “anxiety-related transcripts GABRA2, CHRNA7, ADCYAP1R1, PKCB, CHRBP and CAMK2A (FIGS. 5A-F legend)” value ([2]; co-administration with mEN101, day 4) was “reduced to control levels”. The “effect on HSP90β mRNA up-regulation” value [3] was “completely abolished; also recorded: blocked”, the “effect on mEN101 up-regulation of HSP90β mRNA” value [4] was “abolished” and the “EPM score of co-treated mice vs mEN101-treated mice” value [5, 7] was “larger EPM scores”. For the same substance, the “effect on mEN101 anxiolytic effects” value [5, 7] was “abolished much of the mEN101 anxiolytic effects; also recorded: abolished the mEN101-induced amelioration of anxiety-correlated behaviors”, the “habituation to acoustic startle of co-treated mice vs mEN101-treated mice” value [5, 7] was “smaller habituation to acoustic startle” and the “startle response of co-treated mice” value [5, 7] was “remained unchanged”. The “anxiety index (AI): effect on mEN101 ameliorative effect” value ([5]; co-administered with mEN101, compared to mEN101 treated mice) was “abolished mEN101 ameliorative effect” and the “effect on mEN101 effects on NO production (FIG. 2A legend)” value [6] was “abolished”.
